Measurements: patent publication US20170343551A1, “METHOD OF DIAGNOSING AND TREATING PROSTATE CANCER” (Board of Supervisors of Louisiana State University and …, priority 2016, published 2017)

Key:
Format in all cases: cell-based
[1] = system: TMS1 in PC3 cells; test: TMS1 expression (methylation-repressed positive control gene) in treated PC3 cells; details: known methylation-repressed gene as positive control, FIG. 8A
Text: (§1) FIGS. 8A-8C show SPDEF is subjected to DNA methylation regulation.

[2] = system: SPDEF mRNA in PC3 cells; test: SPDEF (PDEF) mRNA expression by RT-PCR in treated PC3 cells; details: FIG. 8A/8B
Text: as §1
(§2) Both culture and socioeconomic status can affect epigenetic processes; and the epigenetic modification effects can extend not only throughout the life course, but also to generations followed. DNA methylation and histone modifications are two common epigenetic mechanisms that control the expression of affected genes. […] Concomitant with the increased levels of SPDEF, 5-aza treatments reduced the cell migration and invasion ability of PC3 cells. Additionally, the inventors have also examined the distribution of CpG islands in the proximal promoter region of SPDEF. […] Expected treatment levels include, for example, azacytidine 2.5 mg/kg and decitabine 2.5 mg/kg.

[3] = system: PC3 cells; test: Invasion ability of PC3 cells
[4] = system: PC3 cells; test: Cell migration ability of PC3 cells; details: FIG. 8C
Text: as §1, §2

| Compound | expression of TMS1 [1] | expression of SPDEF (PDEF) mRNA [2] | invasion ability [3] | cell migration ability [4] |
| --- | --- | --- | --- | --- |
| Nc1ncn([C@H]2C[C@H](O)[C@@H](CO)O2)c(=O)n1 [5-Aza, 5-aza-2′-deoxycytidine] | induced | induced | reduced | reduced |
| CCCC(CCC)C(=O)O [VPA, valproic acid] |  | did not alter |  |  |
